{"source": "PubChem BioAssay AID2060508", "about": "(Molecular Pharmacology Branch, DTP, NCI, 2025)", "test_system": "454973-116-R2-J3-PDC spheroids, viability, % test/control", "assay": "Anticancer human tumor 454973-116-R2-J3-PDC patient-derived pancreatic carcinoma cell line growth inhibition [GQUAD]", "conditions": "spheroids with HUVEC and MSC; for pIC50: curve of first compound; for viability, T/C: stronger effect = lower value", "procedure,_shortened": "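Tumor cells were grown as complex spheroids with HUVEC endothelial cells and mesenchymal stem cells as stroma. G-quadruplex stabilizers were combined with targeted agents over half-log dilutions from near the clinical Cmax, or from 10 microM.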", "key": {"[1]": {"conditions": "second compound 0.0316 µM, first compound 0.0316 µM"}, "[2]": {"conditions": "second compound 0.0316 µM, first compound 0.316 µM"}, "[3]": {"conditions": "second compound 0.1 µM, first compound 0.0316 µM"}, "[4]": {"conditions": "second compound 0.1 µM, first compound 0.316 µM"}, "[5]": {"conditions": "second compound 0.316 µM, first compound 0.0316 µM"}, "[6]": {"conditions": "second compound 0.316 µM, first compound 0.316 µM"}, "[7]": {"conditions": "second compound 1 µM, first compound 0.0316 µM"}, "[8]": {"conditions": "second compound 1 µM, first compound 0.316 µM"}, "[9]": {"conditions": "second compound 3.16 µM, first compound 0.0316 µM"}, "[10]": {"conditions": "second compound 3.16 µM, first compound 0.316 µM"}, "[11]": {"conditions": "second compound 10 µM, first compound 0.0316 µM"}, "[12]": {"conditions": "second compound 10 µM, first compound 0.316 µM"}}, "note": "pIC50: −log10 of the molar value.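 Note: spheroids exposed to compounds for seven days.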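 Throughout, for viability, T/C: 100% = DMSO vehicle control viability.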"}
{"smiles": "C#Cc1c(F)ccc2cc(O)cc(-c3ncc4c(N5CC6CCC(C5)N6)nc(OCC56CCCN5CC(F)C6)nc4c3F)c12", "note": "(centres undefined) + Cc1cnc(CNC(=O)c2c(=O)c3ccc(N4CCCN(C)CC4)nc3n3c2sc2ccccc23)cn1", "values": [{"measurement": "pIC50", "setting": "second compound 0.0316 µM", "value": "> 7.50"}, {"measurement": "pIC50", "setting": "second compound 0.1 µM", "value": "> 7.50"}, {"measurement": "pIC50", "setting": "second compound 0.316 µM", "value": "> 7.50"}, {"measurement": "pIC50", "setting": "second compound 1 µM", "value": "> 7.50"}, {"measurement": "pIC50", "setting": "second compound 3.16 µM", "value": "> 7.50"}, {"measurement": "pIC50", "setting": "second compound 10 µM", "value": "> 7.50"}, {"measurement": "viability, T/C", "setting": "[1]", "value": 45.9, "unit": "%"}, {"measurement": "viability, T/C", "setting": "second compound 0.0316 µM, first compound 0.1 µM", "value": 40.8, "unit": "%"}, {"measurement": "viability, T/C", "setting": "[2]", "value": 28.3, "unit": "%"}, {"measurement": "viability, T/C", "setting": "second compound 0.0316 µM, first compound 1 µM", "value": 23.2, "unit": "%"}, {"measurement": "viability, T/C", "setting": "second compound 0.0316 µM, first compound 3.16 µM", "value": 20.3, "unit": "%"}, {"measurement": "viability, T/C", "setting": "second compound 0.0316 µM, first compound 10 µM", "value": 17.8, "unit": "%"}, {"measurement": "viability, T/C", "setting": "[3]", "value": 41.9, "unit": "%"}, {"measurement": "viability, T/C", "setting": "second compound 0.1 µM, first compound 0.1 µM", "value": 33.3, "unit": "%"}, {"measurement": "viability, T/C", "setting": "[4]", "value": 24, "unit": "%"}, {"measurement": "viability, T/C", "setting": "second compound 0.1 µM, first compound 1 µM", "value": 20.1, "unit": "%"}, {"measurement": "viability, T/C", "setting": "second compound 0.1 µM, first compound 3.16 µM", "value": 17.1, "unit": "%"}, {"measurement": "viability, T/C", "setting": "second compound 0.1 µM, first compound 10 µM", "value": 16.1, "unit": "%"}, {"measurement": "viability, T/C", "setting": "[5]", "value": 41.7, "unit": "%"}, {"measurement": "viability, T/C", "setting": "second compound 0.316 µM, first compound 0.1 µM", "value": 24.4, "unit": "%"}, {"measurement": "viability, T/C", "setting": "[6]", "value": 17.4, "unit": "%"}, {"measurement": "viability, T/C", "setting": "second compound 0.316 µM, first compound 1 µM", "value": 17.1, "unit": "%"}, {"measurement": "viability, T/C", "setting": "second compound 0.316 µM, first compound 3.16 µM", "value": 14.3, "unit": "%"}, {"measurement": "viability, T/C", "setting": "second compound 0.316 µM, first compound 10 µM", "value": 11.4, "unit": "%"}, {"measurement": "viability, T/C", "setting": "[7]", "value": 36.6, "unit": "%"}, {"measurement": "viability, T/C", "setting": "second compound 1 µM, first compound 0.1 µM", "value": 24.2, "unit": "%"}, {"measurement": "viability, T/C", "setting": "[8]", "value": 19, "unit": "%"}, {"measurement": "viability, T/C", "setting": "second compound 1 µM, first compound 1 µM", "value": 16.5, "unit": "%"}, {"measurement": "viability, T/C", "setting": "second compound 1 µM, first compound 3.16 µM", "value": 13.2, "unit": "%"}, {"measurement": "viability, T/C", "setting": "second compound 1 µM, first compound 10 µM", "value": 10.7, "unit": "%"}, {"measurement": "viability, T/C", "setting": "[9]", "value": 36.5, "unit": "%"}, {"measurement": "viability, T/C", "setting": "second compound 3.16 µM, first compound 0.1 µM", "value": 22.6, "unit": "%"}, {"measurement": "viability, T/C", "setting": "[10]", "value": 19.3, "unit": "%"}, {"measurement": "viability, T/C", "setting": "second compound 3.16 µM, first compound 1 µM", "value": 12.6, "unit": "%"}, {"measurement": "viability, T/C", "setting": "second compound 3.16 µM, first compound 3.16 µM", "value": 9.16, "unit": "%"}, {"measurement": "viability, T/C", "setting": "second compound 3.16 µM, first compound 10 µM", "value": 4.35, "unit": "%"}, {"measurement": "viability, T/C", "setting": "[11]", "value": 0.16, "unit": "%"}, {"measurement": "viability, T/C", "setting": "second compound 10 µM, first compound 0.1 µM", "value": 0.43, "unit": "%"}, {"measurement": "viability, T/C", "setting": "[12]", "value": 0.47, "unit": "%"}, {"measurement": "viability, T/C", "setting": "second compound 10 µM, first compound 1 µM", "value": 0.12, "unit": "%"}, {"measurement": "viability, T/C", "setting": "second compound 10 µM, first compound 3.16 µM", "value": 0.27, "unit": "%"}, {"measurement": "viability, T/C", "setting": "second compound 10 µM, first compound 10 µM", "value": 0.18, "unit": "%"}]}
{"smiles": "Cc1[nH]c2ccccc2c1CCNCc1ccc(/C=C/C(=O)NO)cc1", "note": "+ Cc1cnc(CNC(=O)c2c(=O)c3ccc(N4CCCN(C)CC4)nc3n3c2sc2ccccc23)cn1", "values": [{"measurement": "pIC50", "setting": "second compound 0.0316 µM", "value": 7.22}, {"measurement": "pIC50", "setting": "second compound 0.1 µM", "value": 7.24}, {"measurement": "pIC50", "setting": "second compound 0.316 µM", "value": 7.30}, {"measurement": "pIC50", "setting": "second compound 1 µM", "value": 7.38}, {"measurement": "pIC50", "setting": "second compound 3.16 µM", "value": 7.46}, {"measurement": "pIC50", "setting": "second compound 10 µM", "value": "> 9.00"}, {"measurement": "viability, T/C", "setting": "second compound 0.0316 µM, first compound 0.000999 µM", "value": 96, "unit": "%"}, {"measurement": "viability, T/C", "setting": "second compound 0.0316 µM, first compound 0.00316 µM", "value": 97.9, "unit": "%"}, {"measurement": "viability, T/C", "setting": "second compound 0.0316 µM, first compound 0.00999 µM", "value": 106, "unit": "%"}, {"measurement": "viability, T/C", "setting": "[1]", "value": 76.2, "unit": "%"}, {"measurement": "viability, T/C", "setting": "second compound 0.0316 µM, first compound 0.0999 µM", "value": 27.9, "unit": "%"}, {"measurement": "viability, T/C", "setting": "[2]", "value": 3.29, "unit": "%"}, {"measurement": "viability, T/C", "setting": "second compound 0.1 µM, first compound 0.000999 µM", "value": 84.4, "unit": "%"}, {"measurement": "viability, T/C", "setting": "second compound 0.1 µM, first compound 0.00316 µM", "value": 74.9, "unit": "%"}, {"measurement": "viability, T/C", "setting": "second compound 0.1 µM, first compound 0.00999 µM", "value": 79.2, "unit": "%"}, {"measurement": "viability, T/C", "setting": "[3]", "value": 69.8, "unit": "%"}, {"measurement": "viability, T/C", "setting": "second compound 0.1 µM, first compound 0.0999 µM", "value": 31.1, "unit": "%"}, {"measurement": "viability, T/C", "setting": "[4]", "value": 4.46, "unit": "%"}, {"measurement": "viability, T/C", "setting": "second compound 0.316 µM, first compound 0.000999 µM", "value": 69.7, "unit": "%"}, {"measurement": "viability, T/C", "setting": "second compound 0.316 µM, first compound 0.00316 µM", "value": 71.8, "unit": "%"}, {"measurement": "viability, T/C", "setting": "second compound 0.316 µM, first compound 0.00999 µM", "value": 74.2, "unit": "%"}, {"measurement": "viability, T/C", "setting": "[5]", "value": 67.1, "unit": "%"}, {"measurement": "viability, T/C", "setting": "second compound 0.316 µM, first compound 0.0999 µM", "value": 24.9, "unit": "%"}, {"measurement": "viability, T/C", "setting": "[6]", "value": 2.72, "unit": "%"}, {"measurement": "viability, T/C", "setting": "second compound 1 µM, first compound 0.000999 µM", "value": 61.3, "unit": "%"}, {"measurement": "viability, T/C", "setting": "second compound 1 µM, first compound 0.00316 µM", "value": 63.2, "unit": "%"}, {"measurement": "viability, T/C", "setting": "second compound 1 µM, first compound 0.00999 µM", "value": 61.5, "unit": "%"}, {"measurement": "viability, T/C", "setting": "[7]", "value": 57.1, "unit": "%"}, {"measurement": "viability, T/C", "setting": "second compound 1 µM, first compound 0.0999 µM", "value": 27.5, "unit": "%"}, {"measurement": "viability, T/C", "setting": "[8]", "value": 0.21, "unit": "%"}, {"measurement": "viability, T/C", "setting": "second compound 3.16 µM, first compound 0.000999 µM", "value": 56.4, "unit": "%"}, {"measurement": "viability, T/C", "setting": "second compound 3.16 µM, first compound 0.00316 µM", "value": 64.3, "unit": "%"}, {"measurement": "viability, T/C", "setting": "second compound 3.16 µM, first compound 0.00999 µM", "value": 59.1, "unit": "%"}, {"measurement": "viability, T/C", "setting": "[9]", "value": 52.4, "unit": "%"}, {"measurement": "viability, T/C", "setting": "second compound 3.16 µM, first compound 0.0999 µM", "value": 21, "unit": "%"}, {"measurement": "viability, T/C", "setting": "[10]", "value": 0.16, "unit": "%"}, {"measurement": "viability, T/C", "setting": "second compound 10 µM, first compound 0.000999 µM", "value": 0.26, "unit": "%"}, {"measurement": "viability, T/C", "setting": "second compound 10 µM, first compound 0.00316 µM", "value": 19.2, "unit": "%"}, {"measurement": "viability, T/C", "setting": "second compound 10 µM, first compound 0.00999 µM", "value": 43.2, "unit": "%"}, {"measurement": "viability, T/C", "setting": "[11]", "value": 31.6, "unit": "%"}, {"measurement": "viability, T/C", "setting": "second compound 10 µM, first compound 0.0999 µM", "value": 0.77, "unit": "%"}, {"measurement": "viability, T/C", "setting": "[12]", "value": 0.47, "unit": "%"}]}
